In patent US8101408B2, “Insecticidal extract from legume plants and method of preparing the same” (Her Majesty the Queen in right of Canada, as represented by …, priority 2005, dated 2012):

Experiments:
Sitophilus oryzae = assay: Flour disk antifeedant bioassay with rice weevils (food consumption as % of control; EC50/EC90 for feeding reduction); format: in vivo; conditions: RPC isolate; 0.8 mg dose, disks from one-half the usual amount of flour (100 mg)
Protocol: The bioactivity of separated fractions was determined primarily by a flour disk antifeedant bioassay with the rice weevil (Sitophilus oryzae), an insect pest of stored products.
A glass column (1.2 cm internal diameter×20.5 cm length) equipped with a solvent reservoir and stopcock was filled with silica gel (Mallinckrodt SilicAR cc-7) using a slurry of the silica gel in chloroform (Merck OmniSolv containing 1% ethanol). The top of the bed was protected with sea sand. C8 powder (130 mg) was applied to the column, after mixing with silica gel, as a 1.25 cm band. Using a slight positive air pressure to maintain reasonable flow rates, the column was eluted with chloroform (75 ml) then with 75 ml volumes of various mixtures of chloroform and methanol followed by pure methanol (Table 1). The column was eluted with more methanol (75 ml) and finally with two additional volumes of methanol (250 ml each). […] A final evaporation was performed with a Savant apparatus (43° C.). The tubes were re-weighed, capped and transferred to the bioassay laboratory. Each sample was dissolved in 70% ethanol (0.5 ml) and 0.2 ml of that solution was added to the wheat flour (200 mg) for preparation of the disks. […] Control disks were prepared with 0.2 ml of 70% ethanol.
A test insecticidal compound is incorporated into flour disks. […] A typical dose in many of the above examples is 1.6 milligram/200 milligram flour. Wheat flour is typically used.
Reduction in feeding activity elicited by the experimental samples was compared to food consumption of untreated controls, obtained by weighing the disks before and after exposure to insects and expressed as percent feeding relative to the control. Bioassay can also include insecticidal measurements (lethality with rice weevil).
Flour disks (ca. 0.1 g/disk) were weighed before and after exposure to the insects. […] Antifeedant activity was determined by expressing consumption of treated disks as a percentage of control disks (70% ethanol). Positive controls using the same C8 extract were run with each bioassay.
The estimate and confidence limits are the values of X where the line Y=Yo crosses the regression line and its upper and lower confidence curves, respectively. The formulae can be expressed in terms of outputs from the regression analysis. Let a and b be the estimates of the intercept and slope, MSE the mean square error, n the number of observations, t the (2-sided) critical value of t with n−2 degrees of freedom, V(b) the variance (standard error squared) of b and D=b^2−t^2V(b)). Then the estimate of X is Xo=(Yo−a)/b and the confidence limits for X are X0+t^2V(b)(Y0− Y)/bD±H where H^2=t^2└D·MSE/n+V(b)(Y0− Y)^2┘/D^2. The interval is not symmetric about Xo. […]

[1] = Stability in solution or on storage judged by TLC, HPLC and mass spectrometry; format: physicochemical
Source text: Samples containing soyasaponin VI, freshly prepared in 80% ethanol, could be shown to contain intact soyasaponin VI by HPLC/MS with electrospray ionization, by the appearance of the strong quasimolecular ion at mass1069. However, the samples were always contaminated with soyasaponin I (quasimolecular ion at 943).
The peptide of mass 3788 was of particular interest because its molecular weight was the same as that of PA1b described by Higgins et al. (1986). During RPC, the 3788 peptide was found in highest concentrations in the end fractions from silica gel flash chromatography of C8 with chloroform-water-methanol and then methanol as eluent (system 1 isolate).

[2] = tested on: sugar taste receptor cells of the blowfly; conditions: Ahamed et al., 2000; cited from earlier work

Question: With `CC1=C(O)C(=O)C[C@H](O[C@@H]2CC(C)(C)C[C@H]3C4=CC[C@@H]5[C@@]6(C)CC[C@H](O[C@@H]7O[C@H](C(=O)O)[C@@H](O)[C@H](O)[C@H]7O[C@@H]7O[C@H](CO)[C@H](O)[C@H](O)[C@H]7O[C@@H]7O[C@@H](C)[C@H](O)[C@@H](O)[C@H]7O)[C@](C)(CO)[C@@H]6CC[C@@]5(C)[C@]4(C)CC[C@@]23C)O1` [Soyasaponin VI, soyasaponin VI] as the molecule, how does the “food consumption in the rice weevil bioassay” value (Sitophilus oryzae) read?
Answer: Its value is 80%.

Question: And the “stability (in words)” value [1]?
Answer: The value was “somewhat unstable in solution”.

Question: What about the “effect on sugar taste receptor cells (in words)” value [2] of the same molecule?
Answer: The value was “stimulate the sugar taste receptor cells”.
